Laboratory results as given in the NIST ThermoML archive (doi:10.1007/s10765-011-0999-6).
± gives the expanded uncertainty stated by the source.

Details: Gas, Capillary tube (Ostwald / Ubbelohde) method

`[HH]` [hydrogen] gave a viscosity (294.1 K, 34430 kPa) of 0.00964 ± 0.00059 mPa·s, a viscosity (294.52 K, 4680 kPa) of 0.00901 ± 0.00043 mPa·s and a viscosity (294.91 K, 10160 kPa) of 0.00911 ± 0.00045 mPa·s. For the same compound, the viscosity (295 K, 81640 kPa) was 0.01139 ± 0.00093 mPa·s, the viscosity (295.01 K, 52730 kPa) was 0.01021 ± 0.00072 mPa·s and the viscosity (295.02 K, 99320 kPa) was 0.01196 ± 0.0011 mPa·s. For the same compound, the viscosity (333.28 K, 4940 kPa) was 0.00983 ± 0.00046 mPa·s, the viscosity (333.3 K, 48480 kPa) was 0.01055 ± 0.0007 mPa·s and the viscosity (333.31 K, 69110 kPa) was 0.01122 ± 0.00085 mPa·s. For the same compound, the viscosity (333.31 K, 94920 kPa) was 0.01217 ± 0.001 mPa·s, the viscosity (333.32 K, 9480 kPa) was 0.0099 ± 0.00048 mPa·s and the viscosity (400.1 K, 28190 kPa) was 0.01115 ± 0.00062 mPa·s. For the same compound, the viscosity (400.11 K, 4830 kPa) was 0.01109 ± 0.00052 mPa·s, the viscosity (400.11 K, 9190 kPa) was 0.01127 ± 0.00054 mPa·s and the viscosity (400.11 K, 49790 kPa) was 0.01163 ± 0.00075 mPa·s. The viscosity (400.12 K, 71210 kPa) was 0.01217 ± 0.00089 mPa·s.
Compound `N#N` [nitrogen] has a viscosity (297.22 K, 31330 kPa) of 0.02799 ± 0.0013 mPa·s, a viscosity (297.23 K, 40300 kPa) of 0.03044 ± 0.0015 mPa·s and a viscosity (297.24 K, 50620 kPa) of 0.03457 ± 0.0017 mPa·s. For the same compound, the viscosity (297.25 K, 24520 kPa) was 0.02464 ± 0.0011 mPa·s, the viscosity (297.25 K, 85020 kPa) was 0.0474 ± 0.0023 mPa·s and the viscosity (297.26 K, 70280 kPa) was 0.04283 ± 0.0021 mPa·s. It also gave a viscosity (297.3 K, 570 kPa) of 0.01774 ± 0.00078 mPa·s, a viscosity (297.32 K, 2900 kPa) of 0.01836 ± 0.00081 mPa·s and a viscosity (297.32 K, 4960 kPa) of 0.01892 ± 0.00084 mPa·s. The viscosity (297.33 K, 9020 kPa) was 0.0199 ± 0.0009 mPa·s, the viscosity (297.45 K, 60740 kPa) was 0.03906 ± 0.0019 mPa·s and the viscosity (297.46 K, 95040 kPa) was 0.05291 ± 0.0026 mPa·s. The viscosity (333.14 K, 10530 kPa) was 0.02163 ± 0.00098 mPa·s, the viscosity (333.16 K, 15340 kPa) was 0.0222 ± 0.001 mPa·s and the viscosity (333.22 K, 24490 kPa) was 0.02538 ± 0.0012 mPa·s. The viscosity (333.3 K, 34970 kPa) was 0.02945 ± 0.0014 mPa·s, the viscosity (333.42 K, 48850 kPa) was 0.03239 ± 0.0016 mPa·s and the viscosity (333.51 K, 74270 kPa) was 0.03968 ± 0.002 mPa·s. The viscosity (333.59 K, 95150 kPa) was 0.04811 ± 0.0024 mPa·s, the viscosity (400.07 K, 7230 kPa) was 0.02297 ± 0.001 mPa·s and the viscosity (400.07 K, 10740 kPa) was 0.02334 ± 0.001 mPa·s. The viscosity (400.07 K, 15630 kPa) was 0.02427 ± 0.0011 mPa·s, the viscosity (400.07 K, 25910 kPa) was 0.02639 ± 0.0012 mPa·s and the viscosity (400.07 K, 35280 kPa) was 0.0284 ± 0.0014 mPa·s. The viscosity (400.07 K, 47240 kPa) was 0.03189 ± 0.0015 mPa·s, the viscosity (400.07 K, 65020 kPa) was 0.03573 ± 0.0018 mPa·s and the viscosity (400.07 K, 95070 kPa) was 0.04385 ± 0.0022 mPa·s. The viscosity (499.24 K, 30120 kPa) was 0.02951 ± 0.0014 mPa·s, the viscosity (499.24 K, 48890 kPa) was 0.03275 ± 0.0016 mPa·s and the viscosity (499.24 K, 69570 kPa) was 0.03658 ± 0.0018 mPa·s. It also gave a viscosity (499.24 K, 94610 kPa) of 0.04084 ± 0.0021 mPa·s and a viscosity (499.43 K, 10560 kPa) of 0.02699 ± 0.0012 mPa·s.
